Assay results published in patent US4174406A, “Terpenylaminoalkanol fish toxicants” (priority 1977, dated 1979).
≈ marks a conversion by molar mass, not a printed value.

How the values were obtained:
Chinook salmon = assay: Laboratory fish toxicity test (Table 1); assay type: in vivo, Oncorhynchus tschawytscha; details: tech, 12 C, soft water
Procedure: (§1) Fish were obtained from state and federal hatcheries and maintained prior to testing by a trained fish culturist. Fish of total length 2-5 cm were used in laboratory tests while for outdoor tests small fish (4-6 cm in length) and larger carp and buffalo (Ictiobus cyprinellus) were used.
(§2) In all tests 10 fish of each were exposed to selective concentrations of the toxicant. Mortalities were observed and recorded at 1,2 and 6 hours on the first day and once daily thereafter, during 96 hour exposure.
(§3) Laboratory tests were also conducted in soft water 12° C. wherein the toxicant was evaluated against fifteen species of fish including both cold and warm water varieties. In Table 1, the LC 50 toxicity values for N-(2-hydroxyethyl) digeranylamine is shown for various species. LC50 is defined as the amount (mg/liter) of toxicant required to kill 50 percent of the particular fish species at 95% confidence interval.

Goldfish [1] = assay: Laboratory fish toxicity test (Table 1); assay type: in vivo, Carassius auratus; details: tech, 12 C, soft water
Procedure: as §1, §2, §3

Banded killifish = assay: Laboratory fish toxicity test (Table 1); assay type: in vivo, Fundulus diaphanus; details: tech, 12 C, soft water
Procedure: as §1, §2, §3

Bluegill = assay: Laboratory fish toxicity test (Table 1); assay type: in vivo, Lepomis macrochirus; details: tech, 12 C, soft water
Procedure: as §1, §2, §3

Smallmouth bass = assay: Laboratory fish toxicity test (Table 1); assay type: in vivo, Micropterus dolomieui; details: tech, 12 C, soft water
Procedure: as §1, §2, §3

Dragonfly naiad = assay: Static bioassay in invertebrates (Table 2); assay type: in vivo, Macromia sp.; details: 96 hours, tech, 17 C, soft reconstituted water 42 mg/l hardness
Procedure: (§4) The effect of the various toxicants on common invertebrate species was determined in a static test conducted 17° C. The invertebrates tested were collected from natural populations or purchased from commercial suppliers. They were held in soft water in fiberglass tanks in the laboratory or in outdoor plastic swimming pools. Mortality was observed during holding, and only healthy organisms were used for the toxicity tests. At least 10 organisms of nine species were exposed to each concentration in static tests.

Fingernail clam = assay: Static bioassay in invertebrates (Table 2); assay type: in vivo, Sphaerium sp.; details: 96 hours, tech, 17 C, limed spring water 22-36 mg/l hardness
Procedure: as §4

Goldfish [2] = assay: Outdoor plastic pool test (Table 3); assay type: in vivo, Carassius auratus; details: for % kill: 96 hour, 50% formulation (hydrochloride salt)
Procedure: (§5) N-(2-hydroxyethyl) digeranylamine was tested as a selective fish toxicant in outdoor pools stocked with various fish species and lined with black plastic using 50% water soluble formulations (hydrochloride salt). The formulation was added to each of four pools of 4,000-liter capacity at concentrations of 0.10, 0.15, 0.20, and 0.30 mg/liter. Another pool containing the same number, size, and species of fish served as a control. The test water had algal blooms, a pH of about 8.5, and a total hardness of about 200 mg/liter as CaCo3. The temperature was cool enough (15°-16°C.) to permit the use of trout.
as §1, §2
(§6) Outdoor pool tests were conducted using 50% formulation of the toxicant N-(2-hydroxyethyl) digeranylamine as indicated in Example 8. […] If selective control of white sucker and common carp is desired in an environment which includes rainbow trout, one should employ an effective concentration of toxicant which is at least as great as 0.05 mg/liter but less than 0.1 mg/liter. As a practical fishery practice in the northern United States and Canada, rainbow trout are not usually stocked in bodies of water containing the common carp species; the habitat conditions including water temperature and available oxygen of these species are usually quite different. Common carp and rainbow trout have quite different oxygen and temperature requirements and these differences generally preclude both species cohabitating under natural conditions. In this case the useful range to control common carp and white sucker can be much broader, i.e. 0.1 to 0.3 mg/liter.

Carp = assay: Outdoor plastic pool test (Table 3); assay type: in vivo, Cyprinus carpio; details: for % kill: 50% formulation (hydrochloride salt); for survival (in words): larger carp (19 cm)
Procedure: as §5, §1, §2, §6

Black bullhead = assay: Outdoor plastic pool test (Table 3); assay type: in vivo, Ictalurus melas; details: for % kill: 96 hour, 50% formulation (hydrochloride salt)
Procedure: as §5, §1, §2, §6

Green sunfish [3] = assay: Outdoor plastic pool test (Table 3); assay type: in vivo, Lepomis cyanellus; details: for % kill: 96 hour, 50% formulation (hydrochloride salt)
Procedure: as §5, §1, §2, §6

Largemouth bass = assay: Outdoor plastic pool test (Table 3); assay type: in vivo, Micropterus salmoides; details: for % kill: 96 hour, 50% formulation (hydrochloride salt)
Procedure: as §5, §1, §2, §6

Walleye = assay: Outdoor plastic pool test (Table 3); assay type: in vivo, Sitzostedion vitreum; details: for % kill: 96 hour, 50% formulation (hydrochloride salt)
Procedure: as §5, §1, §2, §6

Green sunfish [4] = assay: Influence of pH on toxicity to green sunfish in soft water (Table 4); assay type: in vivo, Lepomis cyanellus; details: tech, 12 C
Procedure: To determine the influence of pH of the water used on the toxicity of the terpenylaminoalkanols evaluated, experiments were conducted with green sunfish (Lepomis cyanellus) using soft water at 12° C. and chemically buffered over the range of pH 6 to pH 9.

[5] = 96 hours, listed as N-(2-hydroxyethyl) Digeranylamine, 5760 min

CC(C)=CCC/C(C)=C/CN(C/C=C(\C)CCC=C(C)C)CCO [N-(2-hydroxyethyl) digeranylamine]
LC50 (Chinook salmon; 3 hours): 0.300 mg/L (≈ 0.899 µM) | LC50 (Chinook salmon; 6 hours): 0.210 mg/L (≈ 0.63 µM) | LC50 (Chinook salmon; 24 hours): 0.167 mg/L (≈ 0.501 µM) | LC50 (Chinook salmon; 96 hours): 0.129 mg/L (≈ 0.387 µM) | LC50 (Goldfish [1]; 24 hours): 0.961 mg/L (≈ 2.88 µM) | LC50 (Goldfish [1]; 96 hours): 0.290 mg/L (≈ 0.869 µM) | LC50 (Banded killifish; 3 hours): 7.20 mg/L (≈ 21.6 µM) | LC50 (Banded killifish; 6 hours): 2.77 mg/L (≈ 8.3 µM) | LC50 (Banded killifish; 24 hours): 1.32 mg/L (≈ 3.96 µM) | LC50 (Banded killifish; 96 hours): 0.792 mg/L (≈ 2.37 µM) | LC50 (Bluegill; 3 hours): 1.56 mg/L (≈ 4.68 µM) | LC50 (Bluegill; 6 hours): 1.13 mg/L (≈ 3.39 µM) | LC50 (Bluegill; 24 hours): 0.720 mg/L (≈ 2.16 µM) | LC50 (Bluegill; 96 hours, 5760 min): 0.72 mg/L (≈ 2.16 µM) | LC50 (Bluegill; [5]): 0.720 mg/L (≈ 2.16 µM) | LC50 (Smallmouth bass; 3 hours): 1.36 mg/L (≈ 4.08 µM) | LC50 (Smallmouth bass; 6 hours): 0.480 mg/L (≈ 1.44 µM) | LC50 (Smallmouth bass; 24 hours): 0.420 mg/L (≈ 1.26 µM) | LC50 (Smallmouth bass; 96 hours, 5760 min): 0.37 mg/L (≈ 1.11 µM) | LC50 (Smallmouth bass; [5]): 0.237 mg/L (≈ 0.711 µM) | LC50 (Dragonfly naiad): 2.00 mg/L (≈ 6 µM) | LC50 (Fingernail clam): 11.5 mg/L (≈ 34.5 µM) | % kill (Goldfish [2]; 0.10 mg/l): 0% | % kill (Goldfish [2]; 0.15 mg/l): 0% | % kill (Goldfish [2]; 0.20 mg/l): 0% | % kill (Goldfish [2]; 0.30 mg/l): 0% | survival (in words) (Goldfish [2]; goldfish, 0.3 mg/liter, 50% formulation): complete survival | % kill (Carp; carp (large), 0.10 mg/l, 96 hour): 27% | % kill (Carp; carp (large), 0.15 mg/l, 96 hour): 66% | % kill (Carp; carp (large), 0.20 mg/l, 96 hour): 100% | % kill (Carp; carp (large), 0.30 mg/l, 96 hour): 100% | % kill (Carp; carp (small), 0.10 mg/l, 96 hour): 100% | % kill (Carp; carp (small), 0.15 mg/l, 96 hour): 100% | % kill (Carp; carp (small), 0.20 mg/l, 96 hour): 100% | % kill (Carp; carp (small), 0.30 mg/l, 96 hour): 100% | survival (in words) (Carp; 0.2 mg/liter or higher): none survived | survival (in words) (Carp; 0.10 and 0.15 mg/liter): Some white suckers and larger carp (19 cm) survived | kill (in words) (Carp; small common carp (4-6 cm), above 0.10 mg/l, 96 hour): completely eliminated at all concentrations above 0.10 mg/l | % kill (Black bullhead; 0.10 mg/l): 0% | % kill (Black bullhead; 0.15 mg/l): 0% | % kill (Black bullhead; 0.20 mg/l): 0% | % kill (Black bullhead; 0.30 mg/l): 0% | survival (in words) (Black bullhead; black bullhead, 0.3 mg/liter, 50% formulation): complete survival | % kill (Green sunfish [3]; 0.10 mg/l): 0% | % kill (Green sunfish [3]; 0.15 mg/l): 0% | % kill (Green sunfish [3]; 0.20 mg/l): 0% | % kill (Green sunfish [3]; 0.30 mg/l): 0% | survival (in words) (Green sunfish [3]; green sunfish, 0.3 mg/liter, 50% formulation): complete survival | % kill (Largemouth bass; 0.10 mg/l): 0% | % kill (Largemouth bass; 0.15 mg/l): 0% | % kill (Largemouth bass; 0.20 mg/l): 0% | % kill (Largemouth bass; 0.30 mg/l): 0% | survival (in words) (Largemouth bass; largemouth bass, 0.3 mg/liter, 50% formulation): complete survival | % kill (Walleye; 0.10 mg/l): 0% | % kill (Walleye; 0.15 mg/l): 10% | % kill (Walleye; 0.20 mg/l): 0% | % kill (Walleye; 0.30 mg/l): 0% | survival (in words) (Walleye; walleye, 0.3 mg/liter, 50% formulation): complete survival | LC50 (Green sunfish [4]; pH 6.0, 3 hours): 6.34 mg/L (≈ 19 µM) | LC50 (Green sunfish [4]; pH 6.0, 6 hours): 5.00 mg/L (≈ 15 µM) | LC50 (Green sunfish [4]; pH 6.0, 24 hours): 2.84 mg/L (≈ 8.51 µM) | LC50 (Green sunfish [4]; pH 6.0, 96 hours): 1.85 mg/L (≈ 5.55 µM) | LC50 (Green sunfish [4]; pH 7.5, 3 hours): 2.47 mg/L (≈ 7.4 µM) | LC50 (Green sunfish [4]; pH 7.5, 6 hours): 1.64 mg/L (≈ 4.92 µM) | LC50 (Green sunfish [4]; pH 7.5, 24 hours): 1.00 mg/L (≈ 3 µM) | LC50 (Green sunfish [4]; pH 7.5, 96 hours): 0.829 mg/L (≈ 2.49 µM) | LC50 (Green sunfish [4]; pH 8.0, 24 hours): 0.520 mg/L (≈ 1.56 µM) | LC50 (Green sunfish [4]; pH 8.0, 96 hours): 0.520 mg/L (≈ 1.56 µM) | LC50 (Green sunfish [4]; pH 9.0, 3 hours): 0.870 mg/L (≈ 2.61 µM) | LC50 (Green sunfish [4]; pH 9.0, 24 hours): 0.360 mg/L (≈ 1.08 µM) | LC50 (Green sunfish [4]; pH 9.0, 96 hours): 0.268 mg/L (≈ 0.803 µM)
